Results reported in US11976083B2, “Inhibitors of peptidylarginine deiminases” (Gilead Sciences, Inc., priority 2020, dated 2024).

Biological target: T1, human PAD4 (Homo sapiens, UniProt Q9UM07)
T1 construct: human PAD4 (NM_012387), A2-P663, was PCR amplified; His-SUMO (N, cleaved yes); made in house; host or cells: E. coli BL21(DE3)
Assay: In vitro PAD4 BAEE biochemical assay
Conditions: BAEE substrate 3 mM, 5 nM PAD4, 2 mM calcium chloride; geometric mean of multiple experiments
Summary of the method: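 Ammonia produced by BAEE deimination (3 mM substrate, 2 h, 25 °C) was read as fluorescent isoindole after o-phthalaldehyde/DTT derivatization, ex 405 nm/em 535 nm. Human PAD4 at 5 nM final, 2 mM calcium, pH 7.6 MOPS; compound preincubated 30 min. IC50s, normalized to BB-Cl-Amidine and DMSO controls, were geometric-mean averaged.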

T1 sequence (Q9UM07 2-663): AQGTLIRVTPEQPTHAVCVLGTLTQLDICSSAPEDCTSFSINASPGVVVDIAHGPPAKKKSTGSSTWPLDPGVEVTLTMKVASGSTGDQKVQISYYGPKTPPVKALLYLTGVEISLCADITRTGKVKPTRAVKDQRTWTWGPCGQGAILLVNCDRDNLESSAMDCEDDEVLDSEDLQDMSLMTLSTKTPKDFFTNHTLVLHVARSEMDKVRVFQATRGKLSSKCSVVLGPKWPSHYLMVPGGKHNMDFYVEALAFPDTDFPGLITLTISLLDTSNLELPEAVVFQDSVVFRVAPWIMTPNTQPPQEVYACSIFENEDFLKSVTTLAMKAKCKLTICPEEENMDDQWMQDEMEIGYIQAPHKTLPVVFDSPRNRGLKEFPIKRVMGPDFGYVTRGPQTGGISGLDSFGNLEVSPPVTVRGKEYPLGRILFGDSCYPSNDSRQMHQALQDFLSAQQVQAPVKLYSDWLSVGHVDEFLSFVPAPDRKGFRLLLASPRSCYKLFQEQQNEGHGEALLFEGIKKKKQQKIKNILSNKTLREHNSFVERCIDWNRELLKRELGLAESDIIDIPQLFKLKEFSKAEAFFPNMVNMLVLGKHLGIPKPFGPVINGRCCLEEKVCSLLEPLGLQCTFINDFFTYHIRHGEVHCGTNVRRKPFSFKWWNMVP

Structure (SMILES)	IC50 [µM]
COc1cc(C(=O)N2CC[C@@H](OC)[C@@H](N)C2)cc2nc(-c3cc4ccc5nc4n3C[C@H]3C[C@H]3CCCC(C)(C)C(=O)N[C@@H]5C)n(C)c12 [Example 366, (3~{S),5~{R},12~{R})-18-[5-[(3~{S},4~{R})-3-amino-4-methoxy-piperidine-1-carbonyl]-7-methoxy-1-methyl-benzimidazol-2-yl]-9,9,12-trimethyl-1,11,20-triazatetracyclo[11.5.2.0^{3,5}.0^{16,19}] icosa-13(20),14,16(19),17-tetraen-10-one]	0.12
COCCn1c(-c2cc3ccc4nc3n2CCCCC[C@@H]2C[C@H]2C(=O)N[C@@H]4C)nc2cc(C(=O)N3CC[C@@H](OC)[C@@H](N)C3)cc(OC)c21 [Example 432, (2~{R},5~{R},7~{R})-14-[5-[(3~{S},4~{R})-3-amino-4-methoxy-piperidine-1-carbonyl]-7-methoxy-1-(2-methoxyethyl)benzimidazol-2-yl]-2-methyl-3,13,19-triazatetracyclo[11.5.2.0^{5,7}.0^{16,20}] icosa-1(19),14,16(20),17-tetraen-4-one]	0.161
COc1cc(C(=O)N[C@H]2CNCC[C@@H]2F)cc2nc(-c3cc4ccc5nc4n3CCCCC[C@]3(C)C[C@H]3C(=O)N[C@@H]5C)n(C)c12 [Example 618, 2-[(2~{R},5~{R},7~{R})-2,7-dimethyl-4-oxo-3,13,19-triazatetracyclo[11.5.2.0^ {5,7}.0^{16,20}]icosa-1(19),14,16(20), 17-tetraen-14-yl]- ~{N}-[(3~{S},4~{S})-4-fluoro-3-piperidyl]-7-methoxy-1-methyl-benzimidazole-5-carboxamide]	0.069
COc1cc(C(=O)N[C@H]2CNCC[C@@H]2F)cc2nc(-c3cc4ccc5nc4n3CCCCC[C@@H]3[C@@H](C(=O)N[C@@H]5C)C3(F)F)n(C)c12 [Example 369, 2-[(2~{R},5~{S},7~{R})-6,6-difluoro-2-methyl-4-oxo-3,13,19-triazatetracyclo[11.5.2.0^{5,7}.0^{16,20}]icosa-1(19),14,16(20),17-tetraen-14-yl]- ~{N}-[(3~{S},4~{S})-4-fluoro-3-piperidyl]-7-methoxy-1-methyl-benzimidazole-5-carboxamide]	0.037
COc1cc(C(=O)N2C[C@H](N)C[C@@H](F)[C@@H]2C)cc2nc(-c3cc4ccc5nc4n3CC(F)(F)CCCC3C[C@H]3C(=O)N[C@@H]5C)n(C)c12 (stereo partly drawn) [Example 792, (2~{R},5~{R),7~{R})-14-[5-[(2~{S),3~{R},5~{R})-5-amino-3-fluoro-2-methyl-piperidine-1-carbonyl]-7-methoxy-1-methyl-benzimidazol-2-yl]-11,11-difluoro-2-methyl-3,13,19-triazatetracyclo [11.5.2.0^{5,7}.0^{16,20}] icosa-1(18),14,16,19-tetraen-4-one]	0.342
COc1cc(C(=O)N[C@H]2CNCC[C@@H]2F)cc2nc(-c3cc4ccc5nc4n3C[C@H]3C[C@H]3CCC[C@](C)(C(F)(F)F)C(=O)N[C@@H]5C)n(C)c12 [Example 371, 2-[(3~{S},5~{R},9~{S},12~{R})-9,12-dimethyl-10-oxo-9-(trifluoromethyl)-1,11,20-triazatetracyclo[11.5.2.0^{3,5}.0^{16,19}]icosa-13(20),14,16(19),17-tetraen-18-yl]-~{N}-[(3~{S},4~{S})-4-fluoro-3-piperidyl]-7-methoxy-1-methyl-benzimidazole-5-carboxamide]	0.222
COc1cc(C(=O)N2C[C@H]3CC[C@@H]2[C@@H]3N)cc2nc(-c3cc4ccc5nc4n3CCCCCc3ccccc3C(=O)N[C@@H]5C)n(C)c12 [Example 42, (2~{R})-17-[5-[(1~{R},4~{R},7~{R})-7-amino-2-azabicyclo[2.2.1]heptane-2-carbonyl]-7-methoxy-1-methyl-benzimidazol-2-yl]-2-methyl-3,16,22-triazatetracyclo[14.5.2.0^{5,10}.0^{19,23}] tricosa-1(22),5,7,9,17,19(23),20-heptaen-4-one]	0.108
COc1cc(C(=O)N2C[C@H](N)[C@@H]3CC[C@H]2C3)cc2nc(-c3cc4ccc5nc4n3CCCCCc3c(F)ccc(F)c3C(=O)N[C@@H]5C)n(C)c12 [Example 903, (2~{R})-17-[5-[(1~{S},4~{R}, 5~{R})-4-amino-2-azabicyclo [3.2.1]octane-2-carbonyl]-7-methoxy-1-methyl-benzimidazol-2-yl]-6,9-difluoro-2-methyl-3,16,22-triazatetracyclo [14.5.2.0^{5,10}.0^{19,23}] tricosa-1(22),5(10),6,8,17, 19(23),20-heptaen-4-one]	0.055
COc1cc(C(=O)N2CCC[C@@H](N)C2)cc2nc(-c3cc4ccc5nc4n3C[C@@H]3C[C@H]3CO[C@@H](C)CC(=O)N[C@@H]5C)n(C)c12 [Example 267, (5~{R},8~{S},12~{R})-18-[5-[(3~{R})-3-aminopiperidine-1-carbonyl]-7-methoxy-1-methyl-benzimidazol-2-yl]-8,12-dimethyl-7-oxa-1,11,20-triazatetracyclo[11.5.2.0^{3,5}.0^{16,19}] icosa-13(20),14,16(19),17-tetraen-10-one]	0.088
C[C@H]1NC(=O)c2ccncc2CCCCCn2c(-c3nc4cc(C(=O)N[C@H]5CNCC[C@@H]5F)c(F)cc4n3C3CC3)cc3ccc1nc32 [Example 353, 1-cyclopropyl-6-fluoro-~{N}-[(3~{S},4~{S})-4-fluoro-3-piperidyl]-2-[(2~{R})-2-methyl-4-oxo-3,8,16,22-tetrazatetracyclo[14.5.2.0^{5,10}.0^{19,23}]tricosa-1(22),5,7,9,17,19(23),20-heptaen-17-yl]benzimidazole-5-carboxamide]	0.029

More lines, in order of falling IC50, values ahead:

IC50 [µM]	Structure (SMILES)
0.102	COc1cc(C(=O)N2CC[C@@H](OC)[C@@H](N)C2)cc2nc(-c3cc4ccc5nc4n3CC(F)(F)CCCCC3(CC(F)(F)C3)C(=O)N[C@@H]5C)n(C)c12 [Example 821, (11~{R})-17-[5-[(3~{S),4~ {R})-3-amino-4-methoxy-piperidine-1-carbonyl]-7-methoxy-1-methyl-benzimidazol-2-yl]-1′,1′,3,3-tetrafluoro-11-methyl-spiro[1,10,19-triazatricyclo[10.5.2.0^ {15,18}]nonadeca-12 (19),13,15(18),16-tetraene-8,3′-cyclobutane]-9-one]
0.083	COc1cc(C(=O)N2CC[C@@H](OC)[C@@H](N)C2)cc2nc(-c3cc4ccc5nc4n3CCCCCc3ncccc3C(=O)N[C@@H]5C)n(C)c12 [Example 409, (2~{R})-17-[5-[(3~{S},4~{R})-3-amino-4-methoxy-piperidine-1-carbonyl]-7-methoxy-1-methyl-benzimidazol-2-yl]-2-methyl-3,9,16,22-tetrazatetracyclo[14.5.2.0^{5,10}.0^{19,23}] tricosa-1(22),5(10),6,8,17,19(23),20-heptaen-4-one]
0.059	COc1cc(C(=O)N2CC[C@@H](OC)[C@@H](N)C2)cc2nc(-c3cc4ccc5nc4n3CCCCCc3cncc(F)c3C(=O)N[C@@H]5C)n(C)c12 [Example 650, (2~{R})-17-[5-[(3~{S}, 4~{R})-3-amino-4-methoxy-piperidine-1-carbonyl]-7-methoxy-1-methyl-benzimidazol-2-yl]-6-fluoro-2-methyl-3,8,16,22-tetrazatetracyclo[14.5.2.0^ {5,10}.0^{19,23}]tricosa-1(22),5,7,9,17,19(23),20-heptaen-4-one]
0.04	COc1cc(C(=O)N2CCC[C@@H](N)C2)cc2nc(-c3cc4ccc5nc4n3C[C@H]3C[C@H]3CC[C@@H]3C[C@H]3C(=O)N[C@@H]5C)n(C)c12 (single isomer, unassigned) [Example 115, (3˜{S},5˜{R},8˜{R},10˜{R},13˜{R})-19-[5-[(3˜{R})-3-aminopiperidine-1-carbonyl]-7-methoxy-1-methyl-benzimidazol-2-yl]-13-methyl-1,12,21-triazapentacyclo[12.5.2.0^{3,5}.0^{8,10}.0^{17,20}]henicosa-14(21),15,17(20),18-tetraen-11-one]
0.038	C[C@H]1NC(=O)c2ccncc2CCCCCn2c(-c3nc4cc(C(=O)N[C@H]5CNCC[C@@H]5F)c(F)cc4n3C)cc3ccc1nc32 [Example 350, 6-fluoro-~{N}-[(3~{S},4~{S})-4-fluoro-3-piperidyl]-1-methyl-2-[(2~{R})-2-methyl-4-oxo-3,8,16,22-tetrazatetracyclo[14.5.2.0^{5,10}.0^{19,23}]tricosa-1(22),5,7,9,17,19(23),20-heptaen-17-yl]benzimidazole-5-carboxamide]
0.033	C[C@@H]1[C@H](N)CCCN1C(=O)c1cc(F)c2c(c1)nc(-c1cc3ccc4nc3n1CCCCCc1nc(Cl)ccc1C(=O)N[C@@H]4C)n2C [Example 741, (2~{R})-17-[5-[(2~{R},3~{R})-3-amino-2-methyl-piperidine-1-carbonyl]-7-fluoro-1-methyl-benzimidazol-2-yl]-8-chloro-2-methyl-3,9,16,22-tetrazatetracyclo[14.5.2.0^ {5,10}.0^{19,23}]tricosa-1(22),5(10),6,8,17,19(23),20-heptaen-4-one]
0.025	C[C@H]1NC(=O)[C@@H]2C[C@H]2CCCCCn2c(-c3nc4cc(C(=O)N[C@H]5CNCC[C@@H]5F)c(F)cc4n3CCC#N)cc3ccc1nc32 [Example 426, 1-(2-cyanoethyl)-6-fluoro-~{N}-[(3~{S},4~{S})-4-fluoro-3-piperidyl]-2-[(2~{R},5~{R},7~{R})-2-methyl-4-oxo-3,13,19-triazatetracyclo[11.5.2.0^{5,7}.0^{16,20}]icosa-1(19),14,16(20),17-tetraen-14-yl]benzimidazole-5-carboxamide]
0.013	COCCn1c(-c2cc3ccc4nc3n2CCCCC[C@@H]2C[C@H]2C(=O)N[C@@H]4C)nc2cc(C(=O)N3C[C@H](N)[C@@H]4CC[C@H]3C4)cc(OC)c21 [Example 817, (2~{R},5~{R},7~{R})-14-[5-[(1~{S},4~{R},5~{R})-4-amino-2-[3.2.1]octane-2-carbonyl]-7-methoxy-1-(2-methoxyethyl)benzimidazol-2-yl]-2-methyl-3,13,19-triazatetracyclo[11.5.2.0^ {5,7}.0^{16,20}]icosa-1(18),14,16,19-tetraen-4-one]
